This passage reports GI50 and TGI results from PubChem BioAssay (NCI).

SMILES strings stand for the structures.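 All cell lines were grown in 96-well plates and treated with compound for 48 hours. At the GI50, growth is halved. Definition used: TGI = concentration required for complete inhibition of growth.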 Where only a bound is given, the exact number is not on record here.

Among the test systems are A498 renal; CAKI-1 renal; HOP-62 NSCLC; HT29 colon; MCF7 breast; MDA-MB-435; NCI/ADR-RES ovarian; SK-MEL-28 melanoma; SK-MEL-5 melanoma; SNB-19 CNS.
Test in all cases: NCI anticancer screen, dose series, 48 h

In the case of `COC(C(=O)[C@@H](O)[C@@H](C)O)[C@@H]1Cc2cc3cc(O[C@H]4C[C@@H](O[C@H]5C[C@@H](O)[C@H](O)C(C)O5)[C@H](O)C(C)O4)c(C)c(O)c3c(O)c2C(=O)[C@H]1O[C@H]1C[C@@H](O[C@H]2C[C@@H](O[C@H]3C[C@@H](O)[C@H](OC)C(C)O3)[C@@H](O)C(C)O2)[C@H](O)C(C)O1` (stereo not given in full), the GI50 is 0.00614 µM in the assay on A498 renal; 0.601 µM with CAKI-1 renal; 0.0151 µM with HOP-62 NSCLC; 0.00728 µM in the assay on MCF7 breast; 0.0219 µM in the assay with MDA-MB-435; 6.93 µM in the assay on NCI/ADR-RES ovarian. In addition, the GI50 in the assay with SK-MEL-28 melanoma is 0.00946 µM; in the assay with SK-MEL-5 melanoma, 0.00955 µM. The TGI in the assay with A498 renal was 0.0224 µM; in the assay on CAKI-1 renal, above 33.3 µM; in the assay on HOP-62 NSCLC, 0.717 µM; in the assay on HT29 colon, 0.131 µM; in the assay on MCF7 breast, above 33.3 µM; with MDA-MB-435, 0.197 µM. Also, the TGI in the assay on NCI/ADR-RES ovarian is above 33.3 µM; in the assay on SK-MEL-28 melanoma, 0.0647 µM; in the assay on SK-MEL-5 melanoma it was 0.0444 µM; in the assay on SNB-19 CNS, above 33.3 µM.
With `COCOc1ccc(C2(O)Oc3cc(OCOC)ccc3C2C)c(O)c1` (stereo not given), the TGI in the assay with A498 renal came out at 28.8 µM; with CAKI-1 renal, 30.4 µM; with HOP-62 NSCLC, 32 µM; with HT29 colon, 32.2 µM; in the assay with MCF7 breast, 27.9 µM; with MDA-MB-435 it was 28.1 µM. For the same molecule, the TGI with NCI/ADR-RES ovarian was 30.9 µM; in the assay with SK-MEL-28 melanoma, 31 µM; in the assay on SK-MEL-5 melanoma, 23 µM; with SNB-19 CNS, 29.4 µM.
For `O=C1CSC(c2ccc(-c3nc4ccccc4s3)cc2)=N1`, the GI50 with CAKI-1 renal is 17.4 µM; in the assay with HOP-62 NSCLC, 43.7 µM; in the assay on MDA-MB-435, 7.54 µM; with NCI/ADR-RES ovarian, 50.5 µM; with SK-MEL-28 melanoma, 87.2 µM; in the assay with SK-MEL-5 melanoma, 19.2 µM. In the assay with SNB-19 CNS, the GI50 is 72.7 µM. Further, the TGI is above 100 µM with CAKI-1 renal; above 100 µM with HOP-62 NSCLC; 24.8 µM in the assay on MDA-MB-435; above 100 µM with NCI/ADR-RES ovarian; above 100 µM in the assay on SK-MEL-28 melanoma; 41.2 µM with SK-MEL-5 melanoma. This molecule returned a TGI in the assay on SNB-19 CNS above 100 µM.
In the case of `COc1ccc(Cc2cnc(NC(=O)c3ccc4c(c3)OCCO4)s2)cc1`, the GI50 was 0.0159 µM in the assay on A498 renal; below 0.0123 µM with CAKI-1 renal; 0.0602 µM in the assay with HOP-62 NSCLC; 0.0418 µM with HT29 colon; 0.0307 µM with MCF7 breast; 0.024 µM in the assay with NCI/ADR-RES ovarian. Further, the GI50 with SK-MEL-28 melanoma was 3.75 µM; in the assay with SK-MEL-5 melanoma, 0.0268 µM; in the assay on SNB-19 CNS, 0.0523 µM. The TGI is 0.0592 µM in the assay with A498 renal; 15.6 µM in the assay on CAKI-1 renal; above 100 µM in the assay with HOP-62 NSCLC; above 55.4 µM with HT29 colon; above 100 µM in the assay with MCF7 breast; above 100 µM in the assay on NCI/ADR-RES ovarian. Also, the TGI in the assay on SK-MEL-28 melanoma is above 83.8 µM; in the assay with SK-MEL-5 melanoma it was 0.168 µM; with SNB-19 CNS it was 43.2 µM.
Regarding `CC[C@@]1(O)C(=O)OCc2c1cc1n(c2=O)Cc2c-1nc1cc(F)c(C)c3c1c2[C@@H](N)CC3`, the GI50 in the assay with A498 renal is below 0.01 µM; with CAKI-1 renal, below 0.01 µM; in the assay with HOP-62 NSCLC it was below 0.01 µM; in the assay with HT29 colon, below 0.01 µM; in the assay with MCF7 breast, below 0.01 µM; with MDA-MB-435, 0.015 µM. Besides, the GI50 with NCI/ADR-RES ovarian, in the assay with SK-MEL-5 melanoma and in the assay on SNB-19 CNS was below 0.01 µM each time. Further, the TGI in the assay with A498 renal is 0.0221 µM; with CAKI-1 renal, 0.101 µM; with HOP-62 NSCLC, 0.159 µM; in the assay with HT29 colon, above 100 µM; in the assay on MCF7 breast it was above 100 µM; in the assay with MDA-MB-435 it was 1.48 µM. Also, the TGI in the assay on NCI/ADR-RES ovarian is above 100 µM; in the assay with SK-MEL-5 melanoma, 0.0203 µM; in the assay with SNB-19 CNS, above 100 µM.
As for `Clc1ccc(N=CNc2ccc(-c3nc4ccccc4o3)cc2)cc1`, the GI50 with CAKI-1 renal is 15.5 µM; with HOP-62 NSCLC it was above 100 µM; in the assay with MDA-MB-435, 21.1 µM; with NCI/ADR-RES ovarian, 7.03 µM; in the assay with SK-MEL-5 melanoma, 15.4 µM; in the assay on SNB-19 CNS, 35.8 µM. The TGI with CAKI-1 renal is 39.2 µM; in the assay on HOP-62 NSCLC, above 100 µM; in the assay with MDA-MB-435, 49.8 µM; in the assay on NCI/ADR-RES ovarian, 48.1 µM; with SK-MEL-5 melanoma, 30.1 µM; in the assay with SNB-19 CNS, above 100 µM.
With `CCN(CC)c1cc2oc3cc(N)cc(=N)c-3nc2cc1C`, the GI50 in the assay on A498 renal was 16.3 µM; in the assay with CAKI-1 renal, 1.65 µM; in the assay with HOP-62 NSCLC it was 2.91 µM; with HT29 colon, 3.49 µM; in the assay with MCF7 breast, 1.86 µM; with NCI/ADR-RES ovarian, 2.29 µM. Further, the values for the GI50 in the assay with SK-MEL-28 melanoma, with SK-MEL-5 melanoma and with SNB-19 CNS were 5.7 µM, 1.42 µM and 5.46 µM, respectively. The TGI with A498 renal was 74.7 µM; in the assay on CAKI-1 renal it was 6.78 µM; with HOP-62 NSCLC, 9.26 µM; with HT29 colon it was 15.6 µM; in the assay with MCF7 breast, 4.49 µM; in the assay on NCI/ADR-RES ovarian, above 100 µM. For the same molecule, the values for the TGI in the assay with SK-MEL-28 melanoma, in the assay with SK-MEL-5 melanoma and with SNB-19 CNS were 27 µM, 2.79 µM and 32 µM, respectively.
Turning to `S=C1SC2=Nc3ccccc3CN2C2=NCCN12`, the GI50 with CAKI-1 renal was above 100 µM; in the assay on HOP-62 NSCLC it was above 100 µM; in the assay with HT29 colon, 34.7 µM; in the assay on MCF7 breast it was 51.5 µM; in the assay on MDA-MB-435, above 100 µM; in the assay on NCI/ADR-RES ovarian, above 100 µM. For the same molecule, the GI50 is above 100 µM in the assay with SK-MEL-28 melanoma, 14.8 µM with SK-MEL-5 melanoma and above 100 µM in the assay on SNB-19 CNS. The TGI in the assay with CAKI-1 renal, in the assay on HOP-62 NSCLC, with HT29 colon, in the assay with MCF7 breast, in the assay on MDA-MB-435 and with NCI/ADR-RES ovarian was above 100 µM each time. Further, the TGI with SK-MEL-28 melanoma is above 100 µM; with SK-MEL-5 melanoma, 55.5 µM; with SNB-19 CNS, above 100 µM.
In the case of `CCN(CC)CCNC(=O)c1ccc(C)c(OCc2ccccc2)c1[N+](=O)[O-]`, the TGI with A498 renal is above 82.8 µM; in the assay on CAKI-1 renal it was above 71.1 µM; in the assay with HOP-62 NSCLC, above 75.4 µM; in the assay on HT29 colon, 38.7 µM; in the assay on MCF7 breast it was above 53.1 µM; with NCI/ADR-RES ovarian it was above 62.8 µM. Besides, the TGI was 34.2 µM with SK-MEL-28 melanoma, 30.5 µM with SK-MEL-5 melanoma and above 100 µM with SNB-19 CNS.
